Results published in patent US11207331B2, “Agents, compositions and methods for enhancing neurological function” (University of Southern California, priority 2007, dated 2021).

How the values were obtained:
CNPase = CNPase expression (myelination marker); type: in vivo, mouse
Protocol: (§1) Further studies were conducted using a dosing regime of once a week for six months administered subcutaneously. Three and six months old 3×Tg-AD and age-matched non-Tg mice were chosen for the experiments, since AD pathology (Aβ) starts development at 3-month and abundant accumulation at 6-months. Allopregnanolone was subcutaneously (s.c.) administrated with 10 mg/kg once per week for 6 months. For neurogenesis and neurosurvival study, BrdU, IdU and CIdU were intraperitoneal (i.p.) injected at the first 5 days, mid 5 days and 5 days before sacrifice during 6-month treatment. After 6 months of allopregnanolone treatment, mice, at 9- and 12-month old, were sacrificed.
Immunofluorescent staining shown the immunoreactivity increased in CA1, entorhinal cortex, and primary somatosensory cortex.

hippocampal neural cells = experiment: 3H-thymidine uptake in cultured hippocampal neural cells; type: cell-based, rat; conditions: from about 0.1 nm to about 250 nm THP
Protocol: Biochemical analyses of 3H-thymidine uptake, as a measure of DNA synthesis, were used as the experimental vehicle to confirm the morphological observations described in examples 1 and 2. […] Thus, the range for the neurogenic effect of THP on neural cells is quite is sensitive and quite broad.
For these experiments, cultured hippocampal neural cells, derived from embryonic day 18 rat fetuses, were allowed to adhere to polylysine coated plastic cover-slips for 40 min in serum containing medium. Following adhesion, neurons were exposed to […] 3H-thymidine in the presence or absence of 100-500 nM THP and allowed to incubate at 37° C. for 24 hours in the absence or presence of the indicated steroids. Data are expressed as mean+SEM, *p<. 05,**p<0.01, ***p<0.001.
The time course of THP-induced 3H-thymidine incorporation in hippocampal neuronal cells is shown in FIG. 9 where cultured hippocampal nerve cells, derived from embryonic day 18 rat fetuses, were allowed to adhere to polylysine coated plastic cover-slips for 40 min in serum containing medium. Following adhesion, serum containing medium in the presence or absence of 10-250 nM THP plus […] 3H-thymidine and allowed to incubate at 37 for 1, 8 or 24 hours. Data are expressed as mean±SEM, *p<0.05,**p<0.01,***p<0.001.

[1] = tested on: reactive microglial cells; experiment: Microglial reaction (OX42 Western blot, Iba1 staining); type: in vivo, mouse
Protocol: as §1
Western blot analysis was conducted with rabbit polyclonal anti-CD11b/c (OX42) which recognizes reactive microglial cells.

[2] = tested on: mouse hippocampal neuron cell line (HT-22); experiment: FACS of MuLV-GFP infected HT-22 cells; type: cell-based; conditions: THP 250 nM
Protocol: (§2) Having determined that THP increases the expression of the cell proliferating markers, a determination was sought as to whether the increase in cell proliferation markers translated into an increase in neuronal number. […] As shown in FIGS. 6A-6C, THP increases neuron number as assessed in MuLV-GFP infected mouse neurons. The effect of THP on HT-22 cells proliferation was detected on MuLV infected cells.
FIG. 6C summarizes the FACS results. V=vehicle; THP (250 nM).

[3] = tested on: hippocampus of 3×TgAD mice; experiment: Long-term treatment with BrdU, IdU and CldU labelling; type: in vivo, mouse; conditions: 10 mg/kg once a week for 6 months, begun at 3 or 6 months of age
Protocol: In yet another study, THP (10 mg/kg once a week for 6 months) was administered to mice beginning at 3 months or 6 months of age. The cell proliferation marker, 5-bromodeoxyuridine (BrdU) was injected (100 mg/kg) one hour after initial THP treatment and once per day for the next four days to detect cell proliferation and cell survival over the six month treatment period. After 3 months treatment, the mice were injected 5 times with another nucleotide analog iododeoxyuridine (one per day). After 6 months treatment, the mice were injected with chlorodeoxyuridine (CldU) 5 times (once per day). Using specific antibodies, BrdU, IdU, and CldU incorporated cells will identify the 6 month survival, 3 month survival, and newly formed cells respectively. The mice were then sampled for biochemical, IHC, and flow cytometry assay. The results from mice with THP treatment initiated at 3 months old are shown in FIGS. 20B and 20C and initiated at 6 months old are shown in FIGS. 20D and 20E. The aim was to determine whether or not desensitization to THP was occurring.

hippocampal neurons = experiment: Total number of hippocampal neurons; type: cell-based, rat; conditions: primary hippocampal neurons
Excerpt: as §2

phosphorylated tau = experiment: Phospho-tau immunoreactivity; type: in vivo, mouse
[4] = 3×Tg-AD mice, once a week for 6 months

## CC(=O)[C@H]1CC[C@H]2[C@@H]3CC[C@H]4C[C@H](O)CC[C@]4(C)[C@H]3CC[C@]12C [THP, 3α-hydroxy-5α-pregnan-20-one]
CNPase; 9-month nonTg mice and 3×TgAD mice
  CNPase expression, Western blot: increased CNPase expression
CNPase; 12-month 3×TgAD mice
  CNPase expression, Western blot: trended towards an increase
CNPase; 12-month non-Tg mice
  CNPase expression, Western blot: no significant difference
Hippocampal neural cells
  increase in 3H-thymidine uptake relative to control: 80%
[1]; 9-month and 12-month 3×Tg
  anti-CD11b/c (OX42) band intensities: no significant differences
[1]; hippocampal CA1
  anti-Iba1 immunofluorescent staining: lower levels of immunoactivity in THP-treated hippocampal CA1
[2]
  increase in dividing cell number: 22%
[3]
  responsiveness of the brain (desensitization): still responsive to THP at 3 and 6 months
Hippocampal neurons
  increase in neuron number: approximately 30%
Phosphorylated tau; 10 mg/kg once a week for six months
  immunoreactivity of phosphorylated tau: decreases the immunoreactivity of phosphorylated tau
Phosphorylated tau; [4]
  AT8 immunoreactivity, immunoblotting: did not show a significantly reduction of AT8 immunoreactivity
  AT8 immunostaining: lower levels of immunoreactivity in THP-treated hippocampal CA1, cortex and amygdala
